Measurements taken from patent US9556135B2, “Amino-dihydrothiazine and amino-dioxido dihydrothiazine compounds as beta-secretase antagonists and methods of use” (Amgen Inc., priority 2012, dated 2017).

Test system: Abeta 40
Test: In vivo inhibition of beta-secretase: Abeta 40 reduction in CSF and brain of the rat
Conditions: 10 mpk (unless otherwise noted), after 4 hrs
Excerpt: In Vivo Inhibition of Beta-Secretase
Several animal models, including mouse, rat, dog, and monkey, may be used to screen for inhibition of beta-secretase activity in vivo following administration of a test compound sample. Animals used in this invention can be wild type, transgenic, or gene knockout animals. […] One to twenty-four hours following the administration of compound, animals are sacrificed, and brains as well as cerebrospinal fluid (CSF) and plasma are removed for analysis of A-beta levels and drug or test compound concentrations (Dovey et al., 2001, Journal of Neurochemistry, 76, 173-181) Beginning at time 0, animals are administered by oral gavage, or other means of delivery such as intravenous injection, an inhibitory test compound of up to 100 mg/kg in a standard, conventional formulation, such as 2% hydroxypropyl methylcellulose, 1% Tween80. A separate group of animals receive 2% hydroxypropyl methylcellulose, 1% Tween80 alone, containing no test compound, and serve as a vehicle-control group. At the end of the test period, animals are sacrificed and brain tissues, plasma or cerebrospinal fluid are collected. Brains are either homogenized in 10 volumes (w/v) of 0.2% diethylamine (DEA) in 50 mM NaCl (Best et al., 2005, Journal of Pharmacology and Experimental Therapeutics, 313, 902-908), or in 10 volumes of 0.5% TritonX-100 in Tris-buffered saline (pH at about 7.6). Homogenates are centrifuged at 355,000 g, 4° C. for 30 minutes. CSF or brain supernatants are then analyzed for the presence of A-beta peptide by specific sandwich ELISA assays based on ECL (Electrochemiluminescence) technology. For example, rat Abeta40 is measured using biotinylated-4G8 (Signet) as a capture antibody and Fab40 (an in-house antibody specific to the C-terminal of Abeta40) as a detection antibody.
Actual vehicles used: Oral: 2% HPMC, 1% Tween80, pH 2.2

| Structure (SMILES) | % reduction of rat CSF levels at 10 pmk | % reduction of rat brain levels at 10 mpk |
| --- | --- | --- |
| CC1(C)C(N)=N[C@](CF)(c2cc(Nc3ncnc4cc(C#N)cnc34)ccc2F)CS1(=O)=O [Example 236, 4-((3-((3S)-5-amino-3-(fluoromethyl)-6,6-dimethyl-1,1-dioxido-3,6-dihydro-2H-1,4-thiazin-3-yl)-4-fluorophenyl)amino)pyrido[3,2-d]pyrimidine-7-carbonitrile] | 35% | 1% |
| COc1cnc(C(=O)Nc2ccc(F)c([C@]3(C)CS(=O)(=O)[C@@](C)(F)C(N)=N3)c2)cn1 [Example 30, N-(3-((3R,6R)-5-amino-6-fluoro-3,6-dimethyl-1,1-dioxido-3,6-dihydro-2H-1,4-thiazin-3-yl)-4-fluorophenyl)-5-methoxy-2-pyrazinecarboxamide] | 56% | 37% |
| COc1cnc2c(Nc3cnc(F)c([C@]4(C)CS(=O)(=O)C(C)(C)C(N)=N4)c3)nccc2n1 [Example 222, N-(5-((3R)-5-amino-3,6,6-trimethyl-1,1-dioxido-3,6-dihydro-2H-1,4-thiazin-3-yl)-6-fluoro-3-pyridinyl)-2-methoxypyrido[3,4-b]pyrazin-5-amine] | 65% | 49% |
| Cc1cc(Cl)cnc1C(=O)Nc1ccc(F)c([C@]2(CF)CS(=O)(=O)C(C)(C)C(N)=N2)c1 [Example 408, N-(3-((3S)-5-amino-3-(fluoromethyl)-6,6-dimethyl-1,1-dioxido-3,6-dihydro-2H-1,4-thiazin-3-yl)-4-fluorophenyl)-5-chloro-3-methyl-2-pyridinecarboxamide] | 62% | 37% |
| COc1cnc2c(Nc3ccc(F)c([C@]4(CF)CS(=O)(=O)C(C)(C)C(N)=N4)c3)ncc(F)c2c1 [Example 159, (S)-5-amino-3-(2-fluoro-5-((5-fluoro-3-methoxy-1,7-naphthyridin-8-yl)amino)phenyl)-3-(fluoromethyl)-6,6-dimethyl-3,6-dihydro-2H-1,4-thiazine 1,1-dioxide] | 45% | 31% |
| CC1(C)C(N)=N[C@](C)(c2cc(NC(=O)c3cnc(OCC(F)(F)F)cn3)cnc2F)CS1(=O)=O [Example 402, N-(5-((3R)-5-amino-3,6,6-trimethyl-1,1-dioxido-3,6-dihydro-2H-1,4-thiazin-3-yl)-6-fluoro-3-pyridinyl)-5-(2,2,2-trifluoroethoxy)-2-pyrazinecarboxamide] | 43% | 10% |
| CC1(C)C(N)=N[C@](C)(c2cc(Nc3nccc4cc(C#N)cnc34)ccc2F)CS1(=O)=O [Example 48, 8-((3-((3R)-5-amino-3,6,6-trimethyl-1,1-dioxido-3,6-dihydro-2H-1,4-thiazin-3-yl)-4-fluorophenyl)amino)-1,7-naphthyridine-3-carbonitrile] | 79% | 59% |
| COc1ccc(C(=O)Nc2ccc(F)c([C@]3(CF)CS(=O)(=O)C(C)(C)C(N)=N3)c2)nc1 [Example 457, N-(3-((3S)-5-amino-3-(fluoromethyl)-6,6-dimethyl-1,1-dioxido-3,6-dihydro-2H-1,4-thiazin-3-yl)-4-fluorophenyl)-5-methoxy-2-pyridinecarboxamide] | 67% | 50% |
| Cc1cc(OC(F)F)cnc1C(=O)Nc1ccc(F)c([C@]2(C)CS(=O)(=O)C(C)(C)C(N)=N2)c1 [Example 144, (R)—N-(3-(5-amino-3,6,6-trimethyl-1,1-dioxido-3,6-dihydro-2H-1,4-thiazin-3-yl)-4-fluorophenyl)-5-(difluoromethoxy)-3-methylpicolinamide] | 79% | 72% |
| Cc1cc(Cl)cnc1C(=O)Nc1cnc(F)c([C@]2(C)CS(=O)(=O)C3(CCC3)C(N)=N2)c1 [Example 359, N-(5-((7R)-9-amino-7-methyl-5,5-dioxido-5-thia-8-azaspiro[3.5]non-8-en-7-yl)-6-fluoro-3-pyridinyl)-5-chloro-3-methyl-2-pyridinecarboxamide] | 55% | 24% |
| CC1(C)C(N)=N[C@](C)(c2cc(NC(=O)c3ccc(F)cn3)ccc2F)CS1(=O)=O [Example 18, N-(3-((3R)-5-amino-3,6,6-trimethyl-1,1-dioxido-3,6-dihydro-2H-1,4-thiazin-3-yl)-4-fluorophenyl)-5-fluoro-2-pyridinecarboxamide] | 73% | 57% |
| Cc1cc(OC(F)F)cnc1C(=O)Nc1cnc(F)c([C@]2(C)CS(=O)(=O)C(C)(C)C(N)=N2)c1 [Example 400, N-(5-((3R)-5-amino-3,6,6-trimethyl-1,1-dioxido-3,6-dihydro-2H-1,4-thiazin-3-yl)-6-fluoro-3-pyridinyl)-5-(difluoromethoxy)-3-methyl-2-pyridinecarboxamide] | 58% | 25% |
| CC1(C)C(N)=N[C@](CF)(c2cc(Nc3nccc4cc(C#N)cnc34)ccc2F)CS1(=O)=O [Example 387, 8-((3-((3S)-5-amino-3-(fluoromethyl)-6,6-dimethyl-1,1-dioxido-3,6-dihydro-2H-1,4-thiazin-3-yl)-4-fluorophenyl)amino)-1,7-naphthyridine-3-carbonitrile] | 43% | 27% |
| Cc1cc(OC(F)F)cnc1C(=O)Nc1ccc(F)c([C@@]2(C)N=C(N)C3(CCC3)S(=O)(=O)[C@@H]2F)c1 [Example 132, N-(3-((6S,7R)-9-amino-6-fluoro-7-methyl-5,5-dioxido-5-thia-8-azaspiro[3.5]non-8-en-7-yl)-4-fluorophenyl)-5-(difluoromethoxy)-3-methylpicolinamide] | 31% | 10% |
| Cc1cc(OC(F)F)cnc1C(=O)Nc1cc([C@]2(C)CS(=O)(=O)C(C)(C)C(N)=N2)c(=O)n(C)c1 [Example 171, (R)—N-(5-(5-amino-3,6,6-trimethyl-1,1-dioxido-3,6-dihydro-2H-1,4-thiazin-3-yl)-1-methyl-6-oxo-1,6-dihydropyridin-3-yl)-5-(difluoromethoxy)-3-methylpicolinamide] | 1% | 3% |
| COCc1cc(Cl)cnc1C(=O)Nc1ccc(F)c([C@]2(CF)CS(=O)(=O)C(C)(C)C(N)=N2)c1 [Example 458, N-(3-((3S)-5-amino-3-(fluoromethyl)-6,6-dimethyl-1,1-dioxido-3,6-dihydro-2H-1,4-thiazin-3-yl)-4-fluorophenyl)-5-chloro-3-(methoxymethyl)-2-pyridinecarboxamide] | 35% | 8% |
| Cc1cc(OC(F)F)cnc1C(=O)Nc1ccc(F)c([C@]2(CF)CS(=O)(=O)C3(CCC3)C(N)=N2)c1 [Example 412, N-(3-((7S)-9-amino-7-(fluoromethyl)-5,5-dioxido-5-thia-8-azaspiro[3.5]non-8-en-7-yl)-4-fluorophenyl)-5-(difluoromethoxy)-3-methyl-2-pyridinecarboxamide] | 52% | 33% |
| C[C@@]1(c2cc(NC(=O)c3ccc(Cl)cn3)ccc2F)CS(=O)(=O)C2(CC(F)(F)C2)C(N)=N1 [Example 120, (R)—N-(3-(9-amino-2,2-difluoro-7-methyl-5,5-dioxido-5-thia-8-azaspiro[3.5]non-8-en-7-yl)-4-fluorophenyl)-5-chloropicolinamide] | 39% | 18% |
| COc1cnc2c(Nc3ccc(F)c([C@]4(CF)CS(=O)(=O)C(C)(C)C(N)=N4)c3)nccc2n1 [Example 447, N-(3-((3S)-5-amino-3-(fluoromethyl)-6,6-dimethyl-1,1-dioxido-3,6-dihydro-2H-1,4-thiazin-3-yl)-4-fluorophenyl)-2-methoxypyrido[3,4-b]pyrazin-5-amine] | 62% | 42% |
| Cc1cc(Cl)cnc1C(=O)Nc1ccc(F)c([C@@]2(C)N=C(N)C(C)(C)S(=O)(=O)C2F)c1 (stereo partly drawn) [Example 331, N-(3-((3R)-5-amino-2-fluoro-3,6,6-trimethyl-1,1-dioxido-3,6-dihydro-2H-1,4-thiazin-3-yl)-4-fluorophenyl)-5-chloro-3-methyl-2-pyridinecarboxamide] | 67% | 59% |
| C[C@]1(c2cc(NC(=O)c3ccc(Cl)cn3)ccc2F)N=C(N)C2(CCC2)S(=O)(=O)[C@@H]1F [Example 131, N-(3-((6S,7R)-9-amino-6-fluoro-7-methyl-5,5-dioxido-5-thia-8-azaspiro[3.5]non-8-en-7-yl)-4-fluorophenyl)-5-chloropicolinamide] | 10% | −18% |
